Measured values published in patent US3989598A (priority 1962, dated 1976).
Where a name gives a salt, the structure may show the parent alone.

Test: solubility
Type: physicochemical
Details: listed as hydrochloride

COc1cccc2c1C(=O)c1c(O)c3c(c(O)c1C2=O)C[C@@](O)(C(C)=O)C[C@@H]3O[C@H]1C[C@H](N)[C@H](O)[C@H](C)O1 [13057 RP daunorubicin hydrochloride]
solubility in chloroform (chloroform): slightly soluble
solubility in water (water): soluble
